Assay results reported in patent US12378320B2, “Methods for treating pancreatitis” (Cold Spring Harbor Laboratory, priority 2018, dated 2025).

Tests used:
C^PDX;R^LSL;F mice = test: CA19-9 mediated pancreatitis in Dox-treated C^PDX;R^LSL;F mice (H&E, serum amylase and lipase, pEGFR IHC); format: in vivo, mouse
Description: All animal experiments were conducted in accordance with procedures approved by the IACUC at Cold Spring Harbor Laboratory. Mice were enrolled onto experimental studies between 6 and 8 weeks of age. Mice were administered Doxycycline through drinking water (0.5-2 mg/ml) supplemented with 10 mg/ml Sucrose for study durations up to one week. […] EdU (300 μg, Santa Cruz) was intraperitoneally administered bi-daily for three consecutive days. Cerulein was administered in 8 hourly doses of 200 μl (10 μg/ml) intraperitoneally for 48 hours and C57Bl/6J mice were allowed to recover for 24 or 72 hours.
Formalin-fixed, paraffin-embedded blocks were sectioned and de-paraffinized. Antigen retrieval was performed in Citrate buffer for 6 minutes in a pressure cooker unless otherwise specified. […] The slides were then rinsed in tap water and transferred to the Cadenza system. Slides were blocked in 3% BSA in TBST for one hour at room temperature and incubated in primary antibody overnight. Slides were washed three times in TBST, then incubated in horse radish peroxidase-conjugated secondary antibody for one hour at room temperature. The slides were washed three times in TBST and disassembled from the Cadenza system. ImmPACT DAB (Vector) was incubated for 1-10 minutes followed by a water wash and incubation in Hematoxylin counterstain. The slides were then dehydrated and coverslipped in cytoseal 60.
Slides were scanned using an Aperio CS2 scanner (Leica) and the total occupied pixel area was calculated in Imagescope (Leica). Affected pancreatitis areas on H&E stained slides were manually annotated and the uninvolved and affected areas were measured. Pancreatitis areas were defined by the presence of infiltrating lymphocytes, acinar intralobular swelling, acinar to ductal metaplasia, fibrosis and fat cell replacement. The number of Ki67-positive nuclei were counted manually in five representative high-powered fields from least four animals per group.
Amylase and Lipase levels in plasma (lithium heparin, BD biosciences) was measured by IDEXX Pathology services. CA19-9 levels were measured using the human cancer biomarker assay (EMD Millipore) on the MagPIX multiplex ELISA platform (Luminex). Blood glucose levels were measured using an Accu-Chek Nano monitor (Roche) on the lateral saphenous vein. […] The CA19-9 coated plates were washed in 0.05% Tween 20 in PBS and blocked in 1% BSA in wash buffer before incubation 10 μl of mouse plasma in a final volume of 100 μl of blocking buffer

C57Bl/6J mice [1] = format: in vivo; conditions: Sucrose or Dox Sucrose, Vehicle or Erlotinib
Description: KPC mice (Kras^+/LSL-G12D; Trp53^+/R172H; Pdx1-Cre) have been described previously (Hingorani S R, et al., Cancer Cell. 2003; 4(6):437-50; Hingorani S R, et al., Cancer Cell. 2005; 7(5):469-83) and were backcrossed onto the C57Bl/6J background (The Jackson Laboratory, strain 000664). All animal experiments were conducted in accordance with procedures approved by the IACUC at Cold Spring Harbor Laboratory. Mice were enrolled onto experimental studies between 6 and 8 weeks of age. Mice were administered Doxycycline through drinking water (0.5-2 mg/ml) supplemented with 10 mg/ml Sucrose for study durations up to one week. Doxycycline was administered through chow for experimental studies longer than one week, which is designed to deliver 2-3 mg of doxycycline per day based on the consumption of 4-5 g/day per mouse (Harlan Teklad, dietTD.01306, Doxycycline 625 mg). […] Blood glucose levels were measured using the ACCU-CHECK Nano (Roche) on the 414 lateral saphenous vein.
Amylase and Lipase levels in plasma (lithium heparin, BD biosciences) was measured by IDEXX Pathology services. CA19-9 levels were measured using the human cancer biomarker assay (EMD Millipore) on the MagPIX multiplex ELISA platform (Luminex). Blood glucose levels were measured using an Accu-Chek Nano monitor (Roche) on the lateral saphenous vein. […]

C57Bl/6J mice [2] = test: Cerulein model of acute pancreatitis, immune cell types by flow cytometry; format: in vivo, mouse; conditions: for immune cell type representation in the spleen or lymph nodes / immune cells in the pancreas following induction of pancreatitis: flow cytometry
Description: KPC mice (Kras^+/LSL-G12D; Trp53^+/R172H; Pdx1-Cre) have been described previously (Hingorani S R, et al., Cancer Cell. 2003; 4(6):437-50; Hingorani S R, et al., Cancer Cell. 2005; 7(5):469-83) and were backcrossed onto the C57Bl/6J background (The Jackson Laboratory, strain 000664). All animal experiments were conducted in accordance with procedures approved by the IACUC at Cold Spring Harbor Laboratory. Mice were enrolled onto experimental studies between 6 and 8 weeks of age. Mice were administered Doxycycline through drinking water (0.5-2 mg/ml) supplemented with 10 mg/ml Sucrose for study durations up to one week. Doxycycline was administered through chow for experimental studies longer than one week, which is designed to deliver 2-3 mg of doxycycline per day based on the consumption of 4-5 g/day per mouse (Harlan Teklad, dietTD.01306, Doxycycline 625 mg). EdU (300 μg, Santa Cruz) was intraperitoneally administered bi-daily for three consecutive days. Cerulein was administered in 8 hourly doses of 200 μl (10 μg/ml) intraperitoneally for 48 hours and C57Bl/6J mice were allowed to recover for 24 or 72 hours. Blood glucose levels were measured using the ACCU-CHECK Nano (Roche) on the 414 lateral saphenous vein.
Spleens and lymph nodes were mechanically dissociated, homogenized, and passed through a nylon cell strainer (BD Falcon) in FACS buffer (eBioscience). Pancreas were mechanically dissociated and digested with 0.4 mg/mL liberase, 0.05 mg/mL collagenase D, and 0.1 mg/mL DNase I (Roche) in DMEM (Gibco) supplemented with 10% FCS at 37° C. for 30 min and suspensions were passed through a nylon cell strainer.
Staining was performed by incubating cells on a plate shaker, for 15 min at 4° C., with antibodies in FACS buffer (eBioscience). Multicolor flow cytometric analyses were performed using a LSR Fortessa cytometer (BD Biosciences). Gating strategies for all flow cytometric experiments are further described below.

## C#Cc1cccc(Nc2ncnc3cc(OCCOC)c(OCCOC)cc23)c1 [Erlotinib]
C^PDX;R^LSL;F mice; Erlotinib 24 hours prior to the induction of pancreatitis
  ability to substitute for anti-CA19-9 therapy: unable to substitute
C^PDX;R^LSL;F mice; Erlotinib 24 hours prior to the induction of pancreatitis, humane end point prior to study completion
  weight loss: more than 20%
C^PDX;R^LSL;F mice; Erlotinib plus Dox
  pancreatic atrophy at necropsy: evident
  vacuolization of the acinar compartment by histology: apparent
C57Bl/6J mice [1]
  relation of the effects to Erlotinib toxicity in normal mice: unrelated to toxicity

## Cerulein
C57Bl/6J mice [2]
  immune cell type representation in the spleen or lymph nodes: without change
  immune cells in the pancreas following induction of pancreatitis: influx of inflammatory monocytes and macrophages
C57Bl/6J mice [2]; listed as cerulein
  immune cell type representation in the spleen or lymph nodes: without any change
  immune cells in the pancreas following induction of pancreatitis: treatment-dependent influx of inflammatory monocytes and macrophages
C57Bl/6J mice [2]; time points examined 1-3 days
  recruitment of T- or B-cells: Neither model exhibited recruitment
